Key:
[1] = target: T1, Recombinant N-terminal GST tag full-length human HDAC8 (Homo sapiens, UniProt Q9BY41); test: HDAC8 probe binding assay, time resolved fluorescence (TRF); details: fluorescein labeled pan-HDAC inhibitor probe, 16 hours incubation, compounds listed under IC50 range headings
T1 construct: Recombinant N-terminal GST tag full-length human HDAC8; purchased SignalChem H90-30G-1000; host or cells: Sf9 insect cells (baculovirus)
T1 sequence (Q9BY41 1-377): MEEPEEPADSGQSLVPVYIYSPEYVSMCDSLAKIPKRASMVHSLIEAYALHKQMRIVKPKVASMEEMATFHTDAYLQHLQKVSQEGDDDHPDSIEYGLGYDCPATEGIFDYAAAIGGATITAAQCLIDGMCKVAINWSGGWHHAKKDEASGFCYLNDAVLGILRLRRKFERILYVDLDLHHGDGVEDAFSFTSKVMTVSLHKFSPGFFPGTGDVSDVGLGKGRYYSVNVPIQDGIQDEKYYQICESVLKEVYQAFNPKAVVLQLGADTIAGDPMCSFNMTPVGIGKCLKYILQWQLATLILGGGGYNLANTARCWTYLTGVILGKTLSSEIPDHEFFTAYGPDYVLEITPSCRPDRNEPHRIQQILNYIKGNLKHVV
Procedure: The HDAC8 probe binding assay was performed using a time resolved fluorescence (TRF) assay format. Recombinant N-terminal GST tag full-length human HDAC8 was expressed and purified from baculovirus in Sf9 insect cells (SignalChem, #H90-30G-1000), Each assay was performed in 1536 black well microplates (Corning, #3936) in a final volume of 4 μL in assay buffer containing 50 mM HEPES (pH 7.5), 50 mM KCl, 50 mM NaCl, 0.5 mM GSH (L-Glutathione reduced, Sigma #G4251), 0.03% BGG (0.22 μM filtered, Sigma, #G7516-25G), and 0.01% Triton X-100 (Sigma, #T9284-10L). 20 nL of 10-point, 3-fold serial dilution in DMSO was pre-dispensed into respective wells of 1536 assay plates for a final test concentration range of 25 μM to 1.3 nM respectively. The final concentration in the assay of HDAC8 and probe (a fluorescein labeled pan-HDAC inhibitor) was 2.5 nM and 1.5 nM respectively. 2 μL of 2× probe and 2× anti-GST Terbium (Cisbio, #61GSTXLB) was added to assay plates followed by 2 μL of 2× HDAC8. Plates were incubated for 16 hours at room temperature before time resolved fluorescence was read on the Envision (Excitation at 340 nm, and Emission at 485 nm and 535 nm, Perkin Elmer).
Data from HDAC8 Assays were reported as percent inhibition (inh) compared with control wells based on the following equation: % inh=1−((FLU−AveLow)/(AveHigh−AveLow)) where FLU=measured time resolved fluorescence. AveLow=average time resolved fluorescence of no enzyme control (n=32). AveHigh=average time resolved fluorescence of DMSO control (n=32). IC50 values were determined by curve fitting of the standard 4 parameter logistic fitting algorithm included in the Activity Base software package: IDBS XE Designer Model205. Data is fitted using the Levenburg Marquardt algorithm.

[2] = target: T2, Full length human recombinant HDAC8 protein (Homo sapiens, UniProt Q9BY41); test: In vitro histone deacetylase assay: enzymatic HDAC8 assay, electrophoretic mobility shift; format: biochemical; details: substrate RHKK(Ac)-NH2, 1 nM enzyme, compounds listed under IC50 range headings
T2 construct: Full length human recombinant HDAC8 protein was expressed in baculoviral system; made in house
T2 sequence (Q9BY41 1-377): T1 sequence (Q9BY41 1-377)
Procedure, shortened: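 Readout was microfluidic mobility-shift separation of deacetylated product from fluorescent RHKK(Ac)-NH2 substrate (2 µM), after reaction with 1 nM recombinant full-length human HDAC8 at 25 °C, pH 7.5, stopped with SDS. Twelve 3-fold-spaced concentrations tested; product/sum ratios normalized to controls and fitted with a 4-parameter model for IC50.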

Row | SMILES | IC50 [1] [µM] | IC50 [2] [µM]
1 | CC(C)C(=O)Nc1ccccc1/C=C/C(=O)NO [Example I-69, (E)-N-hydroxy-3-(2-isobutyramidophenyl)acrylamide] | ≤ 1 | < 1
2 | O=C(/C=C/c1ccccc1NC(=O)c1ccc(OC(F)F)cc1)NO [Example I-70, (E)-4-(difluoromethxoy)-N-(2-(3-(hydroxyamino)-3-oxoprop-1-en-1-yl)phenyl)benzamide] | ≤ 1 | < 1
3 | O=C(/C=C/c1ccccc1NC(=O)c1ccccc1Oc1ccccc1)NO [Example I-71, (E)-N-(2-(3-(hydroxyamino)-3-oxoprop-1-enyl)phenyl)-2-phenoxybenzamide] | ≤ 1 | < 1
4 | O=C(/C=C/c1ccccc1NC(=O)c1ccc(-n2cccn2)cc1)NO [Example I-72, (E)-N-(2-(3-(hydroxyamino)-3-oxoprop-1-en-1-yl)phenyl)-4-(1H-pyrazol-1-yl)benzamide] | ≤ 1 | < 1
5 | O=C(/C=C/c1ccccc1NC(=O)[C@H]1C[C@H]1c1ccccc1)NO [Example I-73, (1S,2R)-N-(2-((E)-3-(hydroxyamino)-3-oxoprop-1-en-1-yl)phenyl)-2-phenylcyclopropane-1-carboxamide] | ≤ 1 | < 1
6 | O=C(/C=C/c1ccccc1NC(=O)c1csc(-c2cccnc2)n1)NO [Example I-75, (E)-N-(2-(3-(hydroxyamino)-3-oxoprop-1-en-1-yl)phenyl)-2-(pyridin-3-yl)thiazole-4-carboxamide] | ≤ 1 | < 1
7 | O=C(/C=C/c1ccccc1NC(=O)c1cnc(-c2cccnc2)s1)NO [Example I-76, (E)-N-(2-(3-(hydroxyamino)-3-oxoprop-1-en-1-yl)phenyl)-2-(pyridin-3-yl)thiazole-5-carboxamide] | ≤ 1 | < 1
8 | O=C(/C=C/c1ccccc1NC(=O)c1cc2ccccc2[nH]1)NO [Example I-77] | ≤ 1 | < 1
9 | CCn1c(C(=O)Nc2ccccc2/C=C/C(=O)NO)cc2ccccc21 [Example I-79, (E)-1-ethyl-N-(2-(3-(hydroxyamino)-3-oxoprop-1-en-1-yl)phenyl)-1H-indole-2-carboxamide] | ≤ 1 | < 1
10 | O=C(/C=C/c1ccccc1NC(=O)[C@H]1C[C@@H]1c1ccccc1)NO [Example I-83, (1S,2S)-N-(2-((E)-3-(hydroxyamino)-3-oxoprop-1-en-1-yl)phenyl)-2-phenylcyclopropane-1-carboxamide] | ≤ 1 | < 1
11 | O=C(/C=C/c1ccccc1NC(=O)C1CCC2(CC1)CC2)NO [Example I-84, (E)-N-(2-(3-(hydroxyamino)-3-oxoprop-1-en-1-yl)phenyl)spiro[2.5]octane-6-carboxamide] | ≤ 1 | < 1
12 | CS(=O)(=O)c1nc(C(=O)Nc2ccccc2/C=C/C(=O)NO)c2ccccn12 [Example I-85, (E)-N-(2-(3-(hydroxyamino)-3-oxoprop-1-en-1-yl)phenyl)-3-(methylsulfonyl)imidazo[1,5-a]pyridine-1-carboxamide] | ≤ 1 | < 1
13 | O=C(/C=C/c1ccccc1NCc1ccccn1)NO [Example I-89] | ≤ 1 | < 1
14 | O=C(/C=C/c1ccccc1NCc1nccs1)NO [Example I-91, (E)-N-hydroxy-3-(2-((thiazol-2-ylmethyl)amino)phenyl)acrylamide] | ≤ 1 | < 1
15 | O=C(/C=C/c1ccccc1NCc1cccnc1)NO [Example I-93] | ≤ 1 | < 1
16 | Cc1cc(CNc2ccccc2/C=C/C(=O)NO)n(C)n1 [Example I-94, (E)-3-(2-(((1,3-dimethyl-1H-pyrazol-5-yl)methyl)amino)phenyl)-N-hydroxyacrylamide] | ≤ 1 | < 1

Row | SMILES | IC50 [1] [µM] | IC50 [2] [µM]
17 | CS(=O)(=O)c1ccc(CNc2ccccc2/C=C/C(=O)NO)cc1 [Example I-95, (E)-N-hydroxy-3-(2-((4-(methylsulfonyl)benzyl)amino)phenyl)acrylamide] | ≤ 1 | < 1
18 | O=C(/C=C/c1ccccc1NCc1ccc(-c2nnn[nH]2)cc1)NO [Example I-96, (E)-3-(2-((4-(1H-tetrazol-5-yl)benzyl)amino)phenyl)-N-hydroxyacrylamide] | ≤ 1 | < 1
19 | O=C(/C=C/c1ccccc1NCc1cccc(N2CCOCC2)c1)NO [Example I-97, (E)-N-hydroxy-3-(2-((3-morpholinobenzyl)amino)phenyl) acrylamide] | ≤ 1 | < 1
20 | O=C(/C=C/c1ccccc1NCc1ccnc(N2CCOCC2)c1)NO [Example I-98, (E)-N-hydroxy-3-(2-(((2-morpholinopyridin-4-yl)methyl)amino)phenyl)acrylamide] | ≤ 1 | < 1
21 | CS(=O)(=O)c1cccc(CNc2ccccc2/C=C/C(=O)NO)c1 [Example I-100, (E)-N-hydroxy-3-(2-((3-(methylsulfonyl)benzyl)amino)phenyl)acrylamide] | ≤ 1 | < 1
22 | O=C(/C=C/c1ccccc1NCc1cccc(CN2CCOCC2)c1)NO [Example I-101, (E)-N-hydroxy-3-(2-((3-(morpholinomethyl)benzyl)amino)phenyl)acrylamide] | ≤ 1 | < 1
23 | O=C(/C=C/c1ccccc1NCc1ccc2nccn2c1)NO [Example I-103, (E)-N-hydroxy-3-(2-((imidazo[1,2-a]pyridin-6-ylmethyl)amino)phenyl)acrylamide] | ≤ 1 | < 1
24 | O=C(/C=C/c1ccccc1NCc1c[nH]nc1-c1ccc(C(F)(F)F)cc1)NO [Example I-104] | ≤ 1 | < 1
25 | NC(=O)CCc1cccc(C(=O)Nc2ccccc2/C=C/C(=O)NO)c1 [Example I-107, (E)-3-(3-amino-3-oxopropyl)-N-(2-(3-(hydroxyamino)-3-oxoprop-1-en-1-yl)phenyl)benzamide] | ≤ 1 | < 1
26 | O=C(/C=C/c1ccccc1N1CCC2(CCNC2)C1)NO (stereo not shown) [Example I-113, (E)-3-(2-(2,7-diazaspiro[4.4]nonan-2-yl)phenyl)-N-hydroxyacrylamide 2,2,2-trifluoroacetate] | ≤ 1 | < 1
27 | O=C(/C=C/c1ccccc1N1CCC2(CCNCC2)C1)NO [Example I-115, (E)-3-(2-(2,8-diazaspiro[4.5]decan-2-yl)phenyl)-N-hydroxyacrylamide 2,2,2-trifluoroacetate] | ≤ 1 | < 1
28 | O=C(/C=C/c1ccncc1NC(=O)c1cccc(C(F)(F)F)c1)NO [Example I-123, (E)-N-(4-(3-(hydroxyamino)-3-oxoprop-1-enyl)pyridin-3-yl)-3-(trifluoromethyl)benzamide] | ≤ 1 | < 1
29 | Cc1cc(C(=O)NC2CCN(c3ccccc3/C=C/C(=O)NO)CC2)n[nH]1 [Example I-134, (E)-N-(1-(2-(3-(hydroxyamino)-3-oxoprop-1-en-1-yl)phenyl)piperidin-4-yl)-5-methyl-1H-pyrazole-3-carboxamide] | ≤ 1 | < 1
30 | O=C(/C=C/c1ccccc1N1CCC(NC(=O)c2ccnn2C(F)F)CC1)NO [Example I-148] | ≤ 1 | < 1
31 | O=C(/C=C/c1ccccc1N1CCC(NC(=O)c2ccc3[nH]ccc3c2)CC1)NO [Example I-153, (E)-N-(1-(2-(3-(hydroxyamino)-3-oxoprop-1-en-1-yl)phenyl)piperidin-4-yl)-1H-indole-5-carboxamide] | ≤ 1 | < 1
32 | O=C(/C=C/c1ccccc1N1CCN(Cc2nccs2)CC1)NO [Example I-170, (E)-N-hydroxy-3-(2-(4-(thiazol-2-ylmethyl)piperazin-1-yl)phenyl)acrylamide] | ≤ 1 | < 1

Source: patent US10508077B2 (FORMA Therapeutics, Inc., priority 2015, dated 2019)
